In the NIST ThermoML archive (doi:10.1021/je1012857):

Experiment: xn = mol fraction of the nth substance listed
Settings: 101 kPa, Liquid; for speed of sound: Sing-around technique in a fixed-path interferometer; for viscosity: Capillary tube (Ostwald / Ubbelohde) method

NCCN [ethane-1,2-diamine] + CC(C)CO
Settings	mass density [kg/m3]	speed of sound [m/s]	viscosity [mPa·s]
293.15 K, x1 = 0.0664	809.959	1236.6	–
293.15 K, x1 = 0.0967	813.41	1250.3	–
293.15 K, x1 = 0.1652	821.052	1280.8	–
293.15 K, x1 = 0.2002	824.886	1296.8	–
293.15 K, x1 = 0.2617	831.17	1324.1	–
293.15 K, x1 = 0.3019	835.134	1342.3	–
293.15 K, x1 = 0.4093	844.755	1389.6	–
293.15 K, x1 = 0.5014	852.563	1431	–
293.15 K, x1 = 0.6011	861.131	1478	–
293.15 K, x1 = 0.6911	868.086	1520.5	–
293.15 K, x1 = 0.7887	876.941	1571.6	–
293.15 K, x1 = 0.8471	882.565	1603.7	–
293.15 K, x1 = 0.8998	887.801	1634.3	–
293.15 K, x1 = 0.9391	892.054	1658.5	–
298.15 K, x1 = 0.0664	806.006	1219.4	3.231
298.15 K, x1 = 0.0967	809.413	1233.1	3.209
298.15 K, x1 = 0.1652	816.964	1263.3	3.134
298.15 K, x1 = 0.2002	820.75	1279.2	3.094
298.15 K, x1 = 0.2617	826.969	1306.3	3.006
298.15 K, x1 = 0.3019	830.903	1324.5	2.94
298.15 K, x1 = 0.4093	840.455	1371.4	2.724
298.15 K, x1 = 0.5014	848.217	1412.2	2.495
298.15 K, x1 = 0.6011	856.736	1458.7	2.216
298.15 K, x1 = 0.6911	863.637	1500.6	1.958
298.15 K, x1 = 0.7887	872.42	1550.9	1.716
298.15 K, x1 = 0.8471	878.003	1582.6	1.591
298.15 K, x1 = 0.8998	883.197	1612.7	1.501
298.15 K, x1 = 0.9391	887.411	1636.5	1.456
303.15 K, x1 = 0.0664	802.02	1202.4	2.711
303.15 K, x1 = 0.0967	805.385	1216	2.699
303.15 K, x1 = 0.1652	812.854	1246.1	2.648
303.15 K, x1 = 0.2002	816.592	1261.8	2.625
303.15 K, x1 = 0.2617	822.547	1288.6	2.553
303.15 K, x1 = 0.3019	826.644	1306.7	2.502
303.15 K, x1 = 0.4093	836.134	1353.1	2.325
303.15 K, x1 = 0.5014	843.853	1393.5	2.135
303.15 K, x1 = 0.6011	852.325	1439.5	1.895
303.15 K, x1 = 0.6911	859.166	1480.6	1.698
303.15 K, x1 = 0.7887	867.883	1530.2	1.502
303.15 K, x1 = 0.8471	873.42	1561.5	1.404
303.15 K, x1 = 0.8998	878.575	1591.2	1.335
303.15 K, x1 = 0.9391	882.76	1614.6	1.294
308.15 K, x1 = 0.0664	797.994	1185.4	2.18
308.15 K, x1 = 0.0967	801.327	1198.8	2.169
308.15 K, x1 = 0.1652	808.708	1228.7	2.147
308.15 K, x1 = 0.2002	812.41	1244.4	2.135
308.15 K, x1 = 0.2617	818.501	1271.1	2.097
308.15 K, x1 = 0.3019	822.366	1288.9	2.059
308.15 K, x1 = 0.4093	831.795	1334.9	1.924
308.15 K, x1 = 0.5014	839.474	1374.9	1.776
308.15 K, x1 = 0.6011	847.896	1420.2	1.583
308.15 K, x1 = 0.6911	854.681	1460.9	1.446
308.15 K, x1 = 0.7887	863.336	1509.8	1.314
308.15 K, x1 = 0.8471	868.829	1540.7	1.248
308.15 K, x1 = 0.8998	873.941	1570.1	1.191
308.15 K, x1 = 0.9391	878.094	1593.1	1.154
313.15 K, x1 = 0.0664	793.931	1168.4	–
313.15 K, x1 = 0.0967	797.223	1181.6	–
313.15 K, x1 = 0.1652	804.528	1211.5	–
313.15 K, x1 = 0.2002	808.187	1227.1	–
313.15 K, x1 = 0.2617	814.225	1253.6	–
313.15 K, x1 = 0.3019	818.055	1271.2	–
313.15 K, x1 = 0.4093	827.425	1316.9	–
313.15 K, x1 = 0.5014	835.064	1356.4	–
313.15 K, x1 = 0.6011	843.444	1400.9	–
313.15 K, x1 = 0.6911	850.175	1441.2	–
313.15 K, x1 = 0.7887	858.761	1489.6	–
313.15 K, x1 = 0.8471	864.211	1520.1	–
313.15 K, x1 = 0.8998	869.284	1548.9	–
313.15 K, x1 = 0.9391	873.407	1571.7	–

NCCN [ethane-1,2-diamine] + CC(C)O
Settings	mass density [kg/m3]	speed of sound [m/s]	viscosity [mPa·s]
293.15 K, x1 = 0.0557	793.696	1187.2	–
293.15 K, x1 = 0.1036	800.705	1213.8	–
293.15 K, x1 = 0.156	807.902	1241.5	–
293.15 K, x1 = 0.2011	813.922	1265.8	–
293.15 K, x1 = 0.2548	820.862	1295.1	–
293.15 K, x1 = 0.3018	826.514	1320.2	–
293.15 K, x1 = 0.3892	836.546	1366.4	–
293.15 K, x1 = 0.5109	849.474	1430.5	–
293.15 K, x1 = 0.605	858.745	1478.9	–
293.15 K, x1 = 0.6988	868.4	1530.6	–
293.15 K, x1 = 0.7969	878.278	1584.3	–
293.15 K, x1 = 0.8369	881.835	1605.3	–
293.15 K, x1 = 0.8931	887.269	1635.6	–
293.15 K, x1 = 0.9409	892.34	1662.9	–
298.15 K, x1 = 0.0557	789.425	1169.4	2.034
298.15 K, x1 = 0.1036	796.388	1195.9	2.017
298.15 K, x1 = 0.156	803.523	1223.4	1.997
298.15 K, x1 = 0.2011	809.506	1247.6	1.978
298.15 K, x1 = 0.2548	816.397	1276.6	1.962
298.15 K, x1 = 0.3018	822.019	1301.6	1.936
298.15 K, x1 = 0.3892	832.023	1347.5	1.886
298.15 K, x1 = 0.5109	844.925	1410.9	1.796
298.15 K, x1 = 0.605	854.173	1458.9	1.725
298.15 K, x1 = 0.6988	863.796	1510	1.637
298.15 K, x1 = 0.7969	873.662	1563.2	1.543
298.15 K, x1 = 0.8369	877.194	1583.7	1.511
298.15 K, x1 = 0.8931	882.613	1613.9	1.469
298.15 K, x1 = 0.9409	887.669	1640.7	1.438
303.15 K, x1 = 0.0557	785.1	1151.7	1.761
303.15 K, x1 = 0.1036	792.016	1178	1.746
303.15 K, x1 = 0.156	799.108	1205.3	1.733
303.15 K, x1 = 0.2011	805.044	1229.4	1.718
303.15 K, x1 = 0.2548	811.904	1258.2	1.698
303.15 K, x1 = 0.3018	817.496	1283	1.675
303.15 K, x1 = 0.3892	827.475	1328.5	1.629
303.15 K, x1 = 0.5109	840.354	1391.5	1.558
303.15 K, x1 = 0.605	849.588	1439	1.496
303.15 K, x1 = 0.6988	859.186	1489.5	1.429
303.15 K, x1 = 0.7969	869.028	1542.1	1.357
303.15 K, x1 = 0.8369	872.546	1562.4	1.331
303.15 K, x1 = 0.8931	877.945	1592.1	1.298
303.15 K, x1 = 0.9409	882.985	1618.7	1.271
308.15 K, x1 = 0.0557	780.72	1134	1.555
308.15 K, x1 = 0.1036	787.599	1160.1	1.543
308.15 K, x1 = 0.156	794.649	1187.3	1.528
308.15 K, x1 = 0.2011	800.552	1211.2	1.516
308.15 K, x1 = 0.2548	807.374	1239.8	1.497
308.15 K, x1 = 0.3018	812.943	1264.5	1.48
308.15 K, x1 = 0.3892	822.898	1309.7	1.44
308.15 K, x1 = 0.5109	835.76	1372.1	1.375
308.15 K, x1 = 0.605	844.983	1419.1	1.322
308.15 K, x1 = 0.6988	854.563	1469.1	1.266
308.15 K, x1 = 0.7969	864.38	1521.1	1.205
308.15 K, x1 = 0.8369	867.885	1541.2	1.183
308.15 K, x1 = 0.8931	873.264	1570.6	1.152
308.15 K, x1 = 0.9409	878.288	1596.8	1.129
313.15 K, x1 = 0.0557	776.266	1116.4	–
313.15 K, x1 = 0.1036	783.114	1142.2	–
313.15 K, x1 = 0.156	790.129	1169.4	–
313.15 K, x1 = 0.2011	796.005	1193.2	–
313.15 K, x1 = 0.2548	802.798	1221.6	–
313.15 K, x1 = 0.3018	808.346	1246.1	–
313.15 K, x1 = 0.3892	818.281	1291.2	–
313.15 K, x1 = 0.5109	831.131	1353.4	–
313.15 K, x1 = 0.605	840.349	1399.4	–
313.15 K, x1 = 0.6988	849.909	1449.1	–
313.15 K, x1 = 0.7969	859.706	1500.5	–
313.15 K, x1 = 0.8369	863.196	1520.3	–
313.15 K, x1 = 0.8931	868.56	1549.4	–
313.15 K, x1 = 0.9409	873.569	1575.4	–
